Consider 1 compound from paper PMC11561622, “Evaluating Antimalarial Proteasome Inhibitors for Efficacy in Babesia Blood Stage Cultures” (ACS Omega, 2024).

Entries after “also recorded” stand apart in the source; their conditions may differ.

Assay [1] relates to B. microti proteasome β5 subunit. Put plainly: β5 proteasome activity in B. microti lysates (Suc-LLVY-amc). The class given is biochemical, Babesia microti. Particulars: 133.33 nM inhibitor, relative to DMSO. The protocol: (§1) B. divergens and B. microti protein lysates were prepared from infected red blood cells. Briefly, red blood cells were lysed with 0.15% saponin prepared in 1× Phosphate-Buffered Saline (PBS), pH 7.5, to release intact parasites. Parasites were washed with 1× PBS, pH 7.5 (PBS), by centrifugation and the pellets were stored at −80 °C in PBS plus 20% glycerol. To prepare protein lysates for enzymatic assays, parasites were thawed and transferred to 50 mM HEPES (pH 7.5), 10 μM E64, 100 μM AESBF, 1 μM Pepstatin A, and 1 mM DTT (all Sigma-Aldrich). Cells were ruptured by ultrasonication with an amplitude of 0.5 for 3 cycles of 15 s on ice. To prepare protein lysates for activity-based probing and proteasome purification, parasites were thawed and transferred to 20 mM Tris-HCl, pH 7.5, 1 mM DTT, 10 μM E64, and 5% glycerol. The lysate was sonicated on ice for 3 times and clarified by centrifugation at 17,000g for 10 min at 4 °C.
To further improve the detection of the β5 subunit activity with the Suc-LLVY-amc substrate of the Babesia proteasome as previously published,[27] we aimed to further optimize assay conditions. However, to reduce the number of experimental animals in the study, assay conditions were optimized using protein lysates of B. divergens, which can be grown in vitro, instead of B. microti lysates, which need to be maintained in mice. […] Two assay buffers were evaluated. […] The release of the AMC fluorophore was monitored at 37 °C in a Synergy HTX multimode reader (BioTek) with excitation and emission wavelengths set to 340 and 460 nm, respectively.
Proteasome activity in B. microti and B. divergens lysates was screened in the presence of carmaphycin B (CPB) and numerous analogs that were previously designed to target the P. falciparum 20S proteasome.[30] […] The release of the AMC fluorophore was monitored at 37 °C in a Synergy HTX multimode reader (BioTek Instruments, Winooski, VT) with excitation and emission wavelengths set to 340 and 460 nm, respectively. Activity was quantified as RFU per second and normalized to the DMSO control reactions.

The subject of assay [2] is B. divergens proteasome β5 subunit. The class given is biochemical, Babesia divergens. The protocol: as §1
To further improve the detection of the β5 subunit activity with the Suc-LLVY-amc substrate of the Babesia proteasome as previously published,[27] we aimed to further optimize assay conditions. However, to reduce the number of experimental animals in the study, assay conditions were optimized using protein lysates of B. divergens, which can be grown in vitro, instead of B. microti lysates, which need to be maintained in mice. […] Assay conditions were optimized in 50 μL volumes in round-bottom 96-well plates. Two assay buffers were evaluated. Buffer A, as described previously,[27] consists of 20 mM HEPES, pH 8, 1 mM ATP, and 1 μM E64, while Buffer B consists of 50 mM HEPES, pH 7.5, 5 mM ATP, 10 μM E64, 100 μM AESBF, 1 μM Pepstatin A, and 1 mM DTT. Buffers A and B were tested with either 0.02% SDS or 6.67 ng of PA28 as activators of the proteasome activity. […] The release of the AMC fluorophore was monitored at 37 °C in a Synergy HTX multimode reader (BioTek) with excitation and emission wavelengths set to 340 and 460 nm, respectively.
Proteasome activity in B. microti and B. divergens lysates was screened in the presence of carmaphycin B (CPB) and numerous analogs that were previously designed to target the P. falciparum 20S proteasome.[30] A pool of lysates was made for each species to ensure that equal amounts of the lysates were used in each inhibition reaction. Inhibitors were transferred to black 384-well plates with the ATS acoustic transfer system (ATS-100, Biosera). Lysates were incubated with inhibitors for 30 min at room temperature and activity was assayed in 30 μL reactions. Each reaction mixture contained 5 μL of Babesia lysate, 10 nL of the inhibitor (final concentration of 133.33 nM), and 25 μL of assay buffer with 25 μM substrate succinyl-Leu-Leu-Val-Tyr-7-amido-4-methylcoumarin (Suc-LLVY-amc). The release of the AMC fluorophore was monitored at 37 °C in a Synergy HTX multimode reader (BioTek Instruments, Winooski, VT) with excitation and emission wavelengths set to 340 and 460 nm, respectively. Activity was quantified as RFU per second and normalized to the DMSO control reactions.

Take `CCCCCC(=O)N[C@H](C(=O)N[C@@H](CCS(C)(=O)=O)C(=O)N[C@@H](CC(C)C)C(=O)[C@@]1(C)CO1)C(C)C` [carmaphycin B]: the “inhibition of β5 activity in B. microti lysate (in words)” value in assay [1] is given as “to the same extent as CFZ”; in assay [1] (listed as CPB), “inhibited”. Besides, the “inhibition of β5 activity in B. divergens lysate (in words)” value in assay [2] is given as “to the same extent as CFZ; also recorded: completely inactivate”.
